Results from ChEMBL document CHEMBL1201862, “PubChem BioAssay data set” (2004).
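Each compound was tested at five concentrations against cells in 96-well plates for 48 hours. GI50 is the concentration that inhibits growth by half.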 Activity calls are given as the source filed them. Rule as the data show it: active = GI50 up to about 1.1 µM and inactive = higher.

Experiments:
Assay in all cases: NCI-60 cell line screen, 48 h
[1] = system: DLD-1
[2] = system: COLO 205
[3] = system: SNB-78
[4] = system: XF498
[5] = system: HT-29
[6] = system: LXFL 529
[7] = system: DMS-273
[8] = system: OVCAR-4
[9] = system: HCT-116
[10] = system: OVCAR-8
[11] = system: KM12
[12] = system: Malme-3M
[13] = system: RPMI-8226
[14] = system: TK-10
[15] = system: SK-MEL-5
[16] = system: NCI/ADR-RES
[17] = system: Hs-578T
[18] = system: BT-549
[19] = system: MDA-N
[20] = system: DU-145

Measured: GI50

Cc1cn(C2CC(O)C(CO)C2C)c(=O)[nH]c1=O (stereo not given)
inactive: [1] > 100 µM | [2] > 100 µM | [3] > 100 µM | [4] > 100 µM | [5] > 100 µM | [6] > 100 µM | [7] > 100 µM | [8] > 100 µM | [9] > 100 µM | [10] > 100 µM | [11] > 100 µM | [12] > 100 µM

CCNc1cnc2c(n1)c(=O)n(C)c(=O)n2C
inactive: [13] > 100 µM | [1] > 100 µM | [2] > 100 µM | [14] > 100 µM | [4] > 100 µM | [5] > 100 µM | [6] > 100 µM | [7] > 100 µM | [8] > 100 µM | [9] > 100 µM | [15] > 100 µM | [10] > 100 µM | [11] > 100 µM | [12] > 100 µM

CN1CCN(P2(=S)Oc3ccc4ccccc4c3-c3c(ccc4ccccc34)O2)CC1
inactive: [13] 7.8 µM | [1] 34.6 µM | [2] 16.5 µM | [3] 50.4 µM | [4] 28.8 µM | [5] 19.6 µM | [16] 28.7 µM | [7] 22.4 µM | [8] 36.6 µM | [9] 32.7 µM | [15] 22.2 µM | [10] 37.2 µM | [11] 21.6 µM | [12] 21.4 µM

c1ccc(CCn2cncn2)cc1
inactive: [1] > 100 µM | [2] > 100 µM | [3] > 100 µM | [14] > 100 µM | [5] > 100 µM | [6] > 100 µM | [7] > 100 µM | [8] > 100 µM | [9] > 100 µM | [15] > 100 µM | [11] > 100 µM | [12] > 100 µM

CC(C)=CCC/C(C)=C/CCC1(C)C=Cc2c(c3ccccc3oc2=O)O1 (stereo not given)
inactive: [13] 18.2 µM | [1] 14.7 µM | [2] 19.1 µM | [3] > 56.2 µM | [4] 15.5 µM | [5] 18.8 µM | [16] 16.7 µM | [7] 16.9 µM | [8] 14.5 µM | [9] 14.8 µM | [15] 14.7 µM | [10] 16.7 µM | [11] 18.5 µM | [12] 27.6 µM

CNS(=O)(=O)NN(C)S(=O)(=O)c1ccc(F)cc1
inactive: [13] > 100 µM | [1] > 100 µM | [2] > 100 µM | [14] > 100 µM | [4] > 100 µM | [5] > 100 µM | [6] > 100 µM | [7] > 100 µM | [8] > 100 µM | [9] > 100 µM | [15] > 100 µM | [10] > 100 µM | [11] > 100 µM | [12] > 100 µM

COc1cc2c(cc1OC)-c1cc3ccccc3c[n+]1CC2
inactive: [17] 23.8 µM | [13] 36.6 µM | [2] 37.6 µM | [18] 54.7 µM | [14] > 100 µM | [5] > 100 µM | [16] > 100 µM | [8] > 100 µM | [9] > 100 µM | [19] > 100 µM | [15] 22.9 µM | [20] > 100 µM | [10] > 100 µM | [11] 65.3 µM | [12] 25.4 µM
